Source: patent publication US11612634B2 (priority 2020, dated 2023)

Key:
[1] = tested on: morphine analgesic tolerance, inflammatory pain rat model; assay: Effect on morphine analgesic tolerance in Carr-induced inflammatory pain rat model; format: in vivo; conditions: for effect of cysteine-mutated peptide on morphine analgesic tolerance: Carr model, with morphine, dose not given
Experimental: The Carr-induced inflammatory pain model was built according to a published method (Alessandri-Haber N, et al. Neurosci. Vol 29(19), pp. 6217-6288, 2009) for evaluating an analgesic effect of drugs administered by intraplantar injection. Specifically, 6 μL of 1 wt % Carr solution was injected into the rats between the 2nd and 3rd toes of a left hind paw to induce hyperalgesia, which was manifested as plantar swelling and a declined pain threshold of the rats within 1 hour after the injection. Those rats with a PWT lower than 100 gf were considered to be a desired Carr-induced inflammatory pain model, those rats with the PWT higher than 100 gf was removed.
(§1) (1) 24 healthy adult SD rats, weighing 180-220 g, were selected, reinjected with 6 μL of a 1 wt % Carr solution and divided into 4 groups randomly and averagely (i.e., groups A-D). The group A was injected with normal saline; the group B was intradermally injected with 0.1 μg/kg of the short peptide P10581 through the plantar surface of the left hind paw; the group C was intradermally injected with 0.1 μg/kg of the short peptide P10581 and then with 5 mg/kg of morphine 30 min later through the plantar surface of the left hind paw; and the group D was intradermally injected with 0.05 μg/kg of the short peptide P10581, and then with 5 mg/kg of morphine 30 min later through the plantar surface of the left hind paw. 1 h later, the PWT of each group was recorded when the mechanical withdrawal of the left hind paw occurred, and each rat was measured 3-5 times at an interval of 5-10 min.
(§2) (2) The drug was injected every 2 h according to the above-mentioned administration dose and time (seven times in total), and the PWT was recorded.
(S1) By means of molecular biological techniques, two cysteine residues (Cys10 and Cys11) in the short peptide P10581 were replaced with alanine (Ala), and the resulting peptide was named P10581-1 (SEQ ID NO: 2).
(S2) Three cysteine residues (Cys10, Cys11 and Cys17) in the short peptide P10581 were replaced with alanine (Ala), and the resulting peptide was named P10581-2 (SEQ ID NO: 3).
The rat was injected with 6 μL of 1 wt % Carr to establish a Carr-induced inflammatory pain model, and the effect of the short peptides P10581, P10581-1 and P10581-2 on the morphine analgesic tolerance was analyzed according to Experimental Example 1. […]

[2] = tested on: Carr-induced inflammatory pain rat model; assay: Analgesic effect on mechanical hyperalgesia (PWT) in Carr-induced inflammatory pain rat model; format: in vivo; conditions: 2 μg/kg i.d. plantar, every 2 h, six injections
Experimental: The mechanical hyperalgesia of rats was measured by 38500-pressure application measurement (PAM) system (Ugo Basile Biological Research Apparatus, Comerio-Varese, Italy), which consisted of a hand-held part and an integrated electronic part. The hand-held part was a force sensor which was designed according to a Randall-Selitto algesimeter. The integrated electronic part was configured to automatically record a maximum PWT applied to the left hind paw of the rats.
The Carr-induced inflammatory pain model was built according to a published method (Alessandri-Haber N, et al. Neurosci. Vol 29(19), pp. 6217-6288, 2009) for evaluating an analgesic effect of drugs administered by intraplantar injection. […] Those rats with a PWT lower than 100 gf were considered to be a desired Carr-induced inflammatory pain model, those rats with the PWT higher than 100 gf was removed.
(S1) A total of 18 healthy adult SD rats, weighing 180-220 g, were selected, numbered on tails and placed in the same cage.
(S2) The rats were maintained in a measuring room for 2 h for adaptation.
The measurement was repeated 3-5 times for each rat with an interval of 5-10 min. The results of multiple PWT measurements were averaged as the Baseline (BL) (unit: g). After that, 6 μL of 1 wt % Carr was intradermally injected into the plantar surface of the hind paw to build an inflammatory pain rat model.
(S4) The PWT of the left hind paw of each rat was measured 1 h after the Carr injection. Rats with a higher inflammatory threshold and rats with a lower inflammatory threshold were mixed and equally divided into three groups (group A, group B and group C), each for six rats, such that any two groups of rats had similar distribution of inflammatory threshold. The groups A, B and C were intradermally injected with normal saline, 5 mg/kg of morphine and 2 μg/kg of the short peptide P10581, respectively, at the plantar surface of the left hind paw. 1 h later, the PWT of the left hind paw of the rats in each group was measured 3-5 times at an interval of 5-10 min. The multiple PWT measurement results were averaged as the practical PWT (unit: g). Then the drug was injected every 2 h according to the above-mentioned administration dose and time, and the corresponding PWT was recorded (six injections in total).
as §1, §2
(S1) A total of 20 healthy adult SD rats (half male and half female), weighing 180-220 g, were selected, numbered on tails and transferred to the same cage.
(S4) The PWT of the left hind paw of each rat was measured 1 h after the Carr injection.

Sequence: WKCNPNDDKAARPKLKA [P10581-2, P10581 with Cys10, Cys11 and Cys17 replaced with alanine]
- effect of cysteine-mutated peptide on morphine analgesic tolerance [1]: no relieving effect on the morphine analgesic tolerance

Sequence: WKCNPNDDKAARPKLKC [P10581-1, P10581 with Cys10 and Cys11 replaced with alanine]
- effect of cysteine-mutated peptide on morphine analgesic tolerance [1]: merely partially relieve the morphine analgesic tolerance
- decrease in the analgesic effect compared to P10581 ([1]; after 8 injections, with morphine (FIG. 5C)): 57.6%

Sequence: WKCNPNDDKCR [P10583, comparative short peptide, reference compound]
- analgesic effect on Carr-induced inflammatory pain threshold (PWT) [2]: completely reverse the Carr-induced inflammatory pain threshold
- analgesic tolerance after repeated injection [2]: without developing the analgesic tolerance
- effect on morphine analgesic tolerance ([1]; 0.1 μg/kg peptide i.d. 30 min before 5 mg/kg morphine, every 2 h): no relieving effect
